Measured values: patent US5821246A, “Aniline derivatives” (Zeneca Limited, priority 1994, dated 1998)
Where a name gives a salt, the structure may show the parent alone.

Columns and labels:
[1] = tested on: EGF receptor tyrosine kinase; settings: Fry et al., Science, 1994, 265, 1093; cited from earlier work
[2] = biological target: T1, EGF receptor tyrosine kinase (Homo sapiens, UniProt P00533); test: Test (a): in vitro inhibition of the enzyme EGF receptor tyrosine kinase (partially purified from A-431 cells); type: biochemical; settings: EGF receptor tyrosine kinase from A-431 cells
T1 construct: Receptor tyrosine kinase was obtained in partially purified form from A-431 cells; endogenous in cells; host or cells: A-431 cells (human vulval carcinoma)
T1 sequence (P00533 25-1210): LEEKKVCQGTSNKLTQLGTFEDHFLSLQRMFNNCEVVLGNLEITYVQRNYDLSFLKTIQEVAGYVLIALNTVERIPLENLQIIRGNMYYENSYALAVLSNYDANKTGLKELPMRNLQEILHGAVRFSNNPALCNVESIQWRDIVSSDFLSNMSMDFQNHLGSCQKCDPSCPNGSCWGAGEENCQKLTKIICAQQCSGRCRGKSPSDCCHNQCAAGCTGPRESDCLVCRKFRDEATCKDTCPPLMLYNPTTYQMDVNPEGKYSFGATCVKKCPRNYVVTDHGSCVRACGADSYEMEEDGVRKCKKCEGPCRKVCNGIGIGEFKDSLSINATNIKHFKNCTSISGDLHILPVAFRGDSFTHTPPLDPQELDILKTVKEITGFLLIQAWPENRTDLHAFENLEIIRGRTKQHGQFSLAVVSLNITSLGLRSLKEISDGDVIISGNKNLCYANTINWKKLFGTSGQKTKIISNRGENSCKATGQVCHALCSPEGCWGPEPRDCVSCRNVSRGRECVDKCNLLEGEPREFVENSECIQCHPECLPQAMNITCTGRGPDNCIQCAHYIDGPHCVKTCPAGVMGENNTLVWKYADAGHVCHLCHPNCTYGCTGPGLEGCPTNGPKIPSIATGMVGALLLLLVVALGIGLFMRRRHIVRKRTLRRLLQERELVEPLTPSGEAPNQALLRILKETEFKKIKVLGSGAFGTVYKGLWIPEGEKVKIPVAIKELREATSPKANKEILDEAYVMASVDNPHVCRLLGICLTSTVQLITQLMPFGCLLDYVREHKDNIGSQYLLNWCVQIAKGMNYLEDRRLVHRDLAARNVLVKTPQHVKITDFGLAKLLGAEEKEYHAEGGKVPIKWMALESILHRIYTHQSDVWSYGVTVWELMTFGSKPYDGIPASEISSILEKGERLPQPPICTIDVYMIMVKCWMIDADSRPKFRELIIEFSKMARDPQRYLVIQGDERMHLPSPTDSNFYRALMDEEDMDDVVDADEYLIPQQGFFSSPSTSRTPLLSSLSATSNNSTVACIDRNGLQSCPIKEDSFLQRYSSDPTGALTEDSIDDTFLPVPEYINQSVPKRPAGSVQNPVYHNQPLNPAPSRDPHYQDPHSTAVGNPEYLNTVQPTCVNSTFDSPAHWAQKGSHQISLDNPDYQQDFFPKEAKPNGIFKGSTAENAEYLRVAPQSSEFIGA
Description: (a) An in vitro assay which determines the ability of a test compound to inhibit the enzyme EGF receptor tyrosine kinase. Receptor tyrosine kinase was obtained in partially purified form from A-431 cells (derived from human vulval carcinoma) by procedures related to those described by Carpenter et al., J. Biol. Chem., 1979, 254, 4884, Cohen et al., J. Biol. Chem., 1982, 257, 1523 and by Braun et al., J. Biol. Chem., 1984, 259, 2051.
A-431 cells were grown to confluence using Dulbecco's modified Eagle's medium (DHEM) containing 5% fetal calf serum (FCS). The obtained cells were homogenised in a hypotonic borate/EDTA buffer at pH 10.1. The homogenate was centrifuged at 400 g for 10 minutes at 0°-4° C. The supernatant was centrifuged at 25,000 g for 30 minutes at 0°-4° C. The pelleted material was suspended in 30 mM Hepes buffer at pH 7.4 containing 5% glycerol, 4 mM benzamidine and 1% Triton X-100, stirred for 1 hour at 0°-4° C., and recentrifuged at 100,000 g for 1 hour at 0°-4° C. The supernatant, containing solubilised receptor tyrosine kinase, was stored in liquid nitrogen.
For test purposes 40 μl of the enzyme solution so obtained was added to a mixture of 400 μl of a mixture of 150 mM Hepes buffer at pH 7.4, 500 μM sodium orthovanadate, 0.1% Triton X-100, 10% glycerol, 200 μl water, 80 μl of 25 mH DTT and 80 μl of a mixture of 12.5 mM manganese chloride, 125 mM magnesium chloride and distilled water. There was thus obtained the test enzyme solution.
Each test compound was dissolved in dimethylsulphoxide (DMSO) to give a 50 mM solution which was diluted with 40 mM Hepes buffer containing 0.1% Triton X-100, 10% glycerol and 10% DMSO to give a 500 μM solution. Equal volumes of this solution and a solution of epidermal growth factor (EGF; 20 μg/ml) were mixed.
[γ-^32 P]ATP (3000 Ci/mM, 250 μCi) was diluted to a volume of 2 ml by the addition of a solution of ATP (100 μM) in distilled water. An equal volume of a 4 mg/ml solution of the peptide Arg-Arg-Leu-Ile-Glu-Asp-Ala-Glu-Tyr-Ala-Ala-Arg-Gly in a mixture of 40 mH Hepes buffer at pH 7.4, 0.1% Triton X-100 and 10% glycerol was added.
The test compound/EGF mixture solution (5 μl) was added to the test enzyme solution (10 μl) and the mixture was incubated at 0°-4° C. for 30 minutes. The ATP/peptide mixture (10 μl) was added and the mixture was incubated at 25° C. for 10 minutes. The phosphorylation reaction was terminated by the addition of 5% trichloroacetic acid (40 μl) and bovine serum albumin (BSA; 1 mg/ml, 5 μl). The mixture was allowed to stand at 4° C. for 30 minutes and then centrifuged. An aliquot (40 μl) of the supernatant was placed onto a strip of Whatman p 81 phosphocellulose paper. The strip was washed in 75 mH phosphoric acid (4×10 ml) and blotted dry. Radioactivity present in the filter paper was measured using a liquid scintillation counter (Sequence A). The reaction sequence was repeated in the absence of the EGF (Sequence B) and again in the absence of the test compound (Sequence C).
Receptor tyrosine kinase inhibition was calculated as follows: [formula]
The extent of inhibition was then determined at a range of concentrations of test compound to give an IC50 value.

[3] = tested on: liver hepatocyte growth caused by the administration of the growth factor TGFα; test: Test (c): in vivo inhibition of TGFα-stimulated liver hepatocyte growth in male rats (BrdU uptake); settings: Rattus norvegicus, usually oral, TGFα 400 μg/kg subcutaneously, approximate ED50, BrdU uptake
Description: (c) An in vivo assay in a group of male rats which determines the ability of a test compound (usually administered orally as a ball-milled suspension in 0.5% polysorbate) to inhibit the stimulation of liver hepatocyte growth caused by the administration of the growth factor TGFα (400 μg/kg subcutaneously, usually dosed twice, 3 and 7 hours respectively after the administration of the test compound).
In a control group of rats, the administration of TGFα causes on average a 5-fold stimulation of liver hepatocyte growth.
Cell-growth in the control and test animals is determined as follows:
On the morning of the day after the dosing of the test compound (or 0.5% polysorbate in the control group), the animals are dosed with bromodeoxyuridine (BrdU; 100 mg/kg intraperitoneally). The animals are killed four hours later and the livers are excised.
Further tests were carried out using a range of doses of the test compounds to allow the calculation of an approximate ED50 value for the inhibition of liver hepatocyte proliferation as determined by inhibition of the uptake of BrdU.

[4] = tested on: human naso-pharyngeal cancer cell line KB; test: Test (b): inhibition of the EGF-stimulated growth of the human naso-pharyngeal cancer cell line KB; type: cell-based; settings: 72 h, KB cells, EGF (10 ng/ml), 3 days, MTT
Description: (b) An in vitro assay which determines the ability of a test compound to inhibit the EGF-stimulated growth of the human naso-pharyngeal cancer cell line KB.
KB cells were seeded into wells at a density of 1×10^4 -1.5×10^4 cells per well and grown for 24 hours in DHEM supplemented with 5% FCS (charcoal-stripped). Cell growth was determined after incubation for 3 days by the extent of metabolism of MTT tetrazolium dye to furnish a bluish colour. Cell growth was then determined in the presence of EGF (10 ng/ml) or in the presence of EGF (10 ng/ml) and a test compound at a range of concentrations. An IC50 value could then be calculated.

[5] = tested on: another carcinoma which does not express EGF receptor tyrosine kinase; settings: Toi et al., 1990; cited from earlier work
[6] = tested on: human mammary carcinoma which expresses EGF receptor tyrosine kinase; settings: athymic nude mice; Toi et al., 1990; cited from earlier work

Row | SMILES | IC50 [2] | IC50 [4] | inhibitor of EGF receptor tyrosine kinase [1] | ED50 [3] | growth of carcinoma not expressing EGF receptor tyrosine kinase [5] | growth of transplanted carcinoma expressing EGF receptor tyrosine kinase [6]
1 | COc1cc2ncnc(Nc3cccc(Br)c3)c2cc1OC [4-(3'-bromoanilino)-6,7-dimethoxyquinazoline] |  |  | highly potent inhibitor |  |  | 
2 | COc1cc2ncnc(Nc3ccc(Sc4ccccc4)c(Cl)c3)c2cc1OC [4-(3-chloro-4-phenylthioanilino)-6,7-dimethoxyquinazoline] | 80 nM | 1300 nM |  | 12.5 mg/kg |  | 
3 | COc1cc2ncnc(Nc3ccc(Cc4ccccc4)c(Cl)c3)c2cc1OC.I [4-(4-benzyl-3-chloroanilino)-6,7-dimethoxyquinazoline hydroiodide salt] | 100 nM | 1200 nM |  | < 12.5 mg/kg |  | 
4 | COc1cc2ncnc(Nc3ccc(OCc4ccccn4)c(C)c3)c2cc1OCCCN1CCOCC1 [7-methoxy-4-[3-methyl-4-(2-pyridylmethoxy)anilino]-6-(3-morpholinopropoxy)quinazoline] | 450 nM | 2090 nM |  |  |  | 
5 | O=CN/C=C/c1cc(O)ccc1O [erbstatin] |  |  |  |  | without effect on the growth | specifically attenuates the growth

More lines, in order of falling IC50 [2], values ahead:

Row | IC50 [2] | IC50 [4] | SMILES | inhibitor of EGF receptor tyrosine kinase [1] | ED50 [3] | growth of carcinoma not expressing EGF receptor tyrosine kinase [5] | growth of transplanted carcinoma expressing EGF receptor tyrosine kinase [6]
6 | 66 nM | 430 nM | COc1cc2ncnc(Nc3ccc(OCc4ccccn4)c(C)c3)c2cc1OCCCN(C)C [6-(3-dimethylaminopropoxy)-7-methoxy-4-[3-methyl-4-(2-pyridylmethoxy)anilino]quinazoline] |  |  |  | 
7 | 40 nM | 930 nM | COc1cc2ncnc(Nc3ccc(OCc4ccccn4)c(C)c3)c2cc1OC.Cl.Cl [6,7-dimethoxy-4-[3-methyl-4-(2-pyridylmethoxy)anilino]quinazoline dihydrochloride salt] |  | 5 mg/kg |  | 
8 | 30 nM | 380 nM | COc1cc2ncnc(Nc3ccc(C(=O)c4ccccc4)c(Cl)c3)c2cc1OC.Cl [4-(4-benzoyl-3-chloroanilino)-6,7-dimethoxyquinazoline hydrochloride salt] |  | < 5 mg/kg |  | 
9 | 7 nM | 200 nM | COc1cc2ncnc(Nc3ccc(Sc4nccn4C)c(Cl)c3)c2cc1OC [4-[3-chloro-4-(1-methylimidazol-2-ylthio)anilino]-6,7-dimethoxyquinazolinedihydrochloride salt] |  | < 12.5 mg/kg |  | 
